Reference: the supplement of paper PMC11208160

Assay: recombinant UMI read abundance after kanamycin selection (control-corrected) (log10(CPM+1)); higher = more efficient recombination; extreme values may be limits of the assay; sequences stand for … in AGTGCAGAGAAAATCGGCCAGTTTTCTCTGCCTGCAGTCCGCATGCCGTGGGACCCCTTGGGTTCTAACCTGTTGCCTAGATTTATGCAGCGGACTGCCTTTCTCCCAAAGTGATAAACCGG…AGGTTGGTTTCACT; site = the 11-nt donor
Summary of the method: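 Pooled Escherichia coli screen of donor and donor-binding-loop pairs for the IS621 bridge recombinase. Each pair sits with a 12-nt UMI on a plasmid carrying a promoterless kanamycin gene. The library was co-electroporated with a target plasmid encoding a fixed target and T7-inducible recombinase, then plated with IPTG (0.07 mM) plus kanamycin, or unselected, each in two replicates. Recombinant UMIs were PCR-amplified across the donor–target junction and sequenced. Counts became CPM, averaged over replicates, scaled by control-derived factors and reported as log10(CPM+1).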
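Also: IS621 bridge recombinase in Escherichia coli cells against a fixed T5 target plasmid.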

Sequence	recombinant UMI read abundance (log10)
ACTTAGTCATGGACCGGTTTTCCCGGTAATCCGTATTTGCC (site ACTTAGTCTGG)	2.47
ACTTATGCATGGACCGGTTTTCCCGGTAATCCGTATTTGGA (site AATTATGCTTC)	0.425
ACTTATGCATGGACCGGTTTTCCCGGTAATCCGTATTTGGA (site ACTTATGCTTC)	1.41
ACTTATGCATGGACCGGTTTTCCCGGTAATCCGTATTTGGA (site AGTTATGCTTC)	0.698
ACTTATGCATGGACCGGTTTTCCCGGTAATCCGTATTTGGA (site ATTTATGCTTC)	0.623
ACTTCCGCATGGACCGGTTTTCCCGGTAATCCGTATTTGTT (site ACTTCCGCTAA)	1.5
ACTTCTCCATGGACCGGTTTTCCCGGTAATCCGTATTTGAT (site ACTTCTCCTAT)	0.78
ACTTGAACATGGACCGGTTTTCCCGGTAATCCGTATTTGAG (site ACTAGAACTCT)	0.0666
ACTTGAACATGGACCGGTTTTCCCGGTAATCCGTATTTGAG (site ACTCGAACTCT)	0.999
ACTTGAACATGGACCGGTTTTCCCGGTAATCCGTATTTGAG (site ACTGGAACTCT)	1.23
ACTTGAACATGGACCGGTTTTCCCGGTAATCCGTATTTGAG (site ACTTGAACTCT)	0.998
AGAAACACATGGACCGGTTTTCCCGGTAATCCGTATTTGGT (site AGAAACACTAC)	2.3
AGAAAGACATGGACCGGTTTTCCCGGTAATCCGTATTTGCA (site AGAAAGACTTG)	2.6
AGAAAGACATGGACCGGTTTTCCCGGTAATCCGTATTTGCA (site AGCAAGACTTG)	1.59
AGAAAGACATGGACCGGTTTTCCCGGTAATCCGTATTTGCA (site AGGAAGACTTG)	0.932
AGAAAGACATGGACCGGTTTTCCCGGTAATCCGTATTTGCA (site AGTAAGACTTG)	1.15
AGAAAGGCATGGACCGGTTTTCCCGGTAATCCGTATTTGAT (site AGAAAGGCTAA)	0.418
AGAAAGGCATGGACCGGTTTTCCCGGTAATCCGTATTTGAT (site AGAAAGGCTAC)	0
AGAAAGGCATGGACCGGTTTTCCCGGTAATCCGTATTTGAT (site AGAAAGGCTAG)	0
AGAAAGGCATGGACCGGTTTTCCCGGTAATCCGTATTTGAT (site AGAAAGGCTAT)	2.28
AGAACGCCATGGACCGGTTTTCCCGGTAATCCGTATTTGCC (site AGAACGCCTGG)	0.968
AGAATGACATGGACCGGTTTTCCCGGTAATCCGTATTTGCA (site AGAATGACTTG)	2.63
AGAATGACATGGACCGGTTTTCCCGGTAATCCGTATTTGCA (site AGGAAGACTTG)	1.53

Sequence	recombinant UMI read abundance (log10)
AGAATGTCATGGACCGGTTTTCCCGGTAATCCGTATTTGGG (site AGAATGTCTCC)	2.01
AGAATTTCATGGACCGGTTTTCCCGGTAATCCGTATTTGGG (site AGAATTTCTCC)	0.964
AGACAGCCATGGACCGGTTTTCCCGGTAATCCGTATTTGCA (site AGACAGCCTTG)	1.21
AGACGCACATGGACCGGTTTTCCCGGTAATCCGTATTTGTT (site AGACGCACTAA)	1.79
AGAGAAGCATGGACCGGTTTTCCCGGTAATCCGTATTTGCG (site AGAGAAGCTCG)	3.09
AGAGATCCATGGACCGGTTTTCCCGGTAATCCGTATTTGAA (site AGAGATCCTTT)	2.01
AGAGATTCATGGACCGGTTTTCCCGGTAATCCGTATTTGGC (site AGAGATTCTGC)	2.95
AGAGCTTCATGGACCGGTTTTCCCGGTAATCCGTATTTGGG (site AGAGCTTCTCC)	1.06
AGAGGAGCATGGACCGGTTTTCCCGGTAATCCGTATTTGGC (site AGAGGAGCTGC)	1.01
AGAGGATCATGGACCGGTTTTCCCGGTAATCCGTATTTGCA (site ACAGTATCTTG)	1.59
AGAGGATCATGGACCGGTTTTCCCGGTAATCCGTATTTGCA (site AGAGGATCTTG)	2.04
AGAGGCACATGGACCGGTTTTCCCGGTAATCCGTATTTGAC (site AGAGGCACTGT)	2.32
AGAGTGGCATGGACCGGTTTTCCCGGTAATCCGTATTTGCT (site AGAGTGGCTAG)	2.62
AGAGTGTCATGGACCGGTTTTCCCGGTAATCCGTATTTGCA (site ACAGTATCTTG)	2.56
AGAGTGTCATGGACCGGTTTTCCCGGTAATCCGTATTTGCA (site AGAGTGTCTTG)	3.45
AGATAATCATGGACCGGTTTTCCCGGTAATCCGTATTTGCT (site AGATAATCTAG)	3.3
AGATCATCATGGACCGGTTTTCCCGGTAATCCGTATTTGCT (site AGATCATCTAG)	1.56
AGATCATCATGGACCGGTTTTCCCGGTAATCCGTATTTGCT (site CGATCATCTAG)	0.477
AGATCATCATGGACCGGTTTTCCCGGTAATCCGTATTTGCT (site GGATCATCTAG)	0.911
AGATCATCATGGACCGGTTTTCCCGGTAATCCGTATTTGCT (site TGATCATCTAG)	1.75
AGATGGGCATGGACCGGTTTTCCCGGTAATCCGTATTTGAG (site AGATGGGCTCT)	1.06
AGATTAGCATGGACCGGTTTTCCCGGTAATCCGTATTTGAC (site AGATTAGCTGT)	2.75
AGATTATCATGGACCGGTTTTCCCGGTAATCCGTATTTGGA (site AGATTATCTTC)	1.9

Sequence	recombinant UMI read abundance (log10)
AGATTCTCATGGACCGGTTTTCCCGGTAATCCGTATTTGTG (site AGATTCTCTCA)	2.63
AGCAGAGCATGGACCGGTTTTCCCGGTAATCCGTATTTGAG (site AGCAGAGCTCT)	2.54
AGCAGTACATGGACCGGTTTTCCCGGTAATCCGTATTTGAT (site AGCAGTACTAT)	1.79
AGCATTGCATGGACCGGTTTTCCCGGTAATCCGTATTTGAA (site AGCATTGCTTT)	2.4
AGCATTTCATGGACCGGTTTTCCCGGTAATCCGTATTTGAC (site AGCATTTCTGT)	0.795
AGCATTTCATGGACCGGTTTTCCCGGTAATCCGTATTTGAC (site AGCCTTTCTGT)	0
AGCATTTCATGGACCGGTTTTCCCGGTAATCCGTATTTGAC (site AGCGTTTCTGT)	0
AGCATTTCATGGACCGGTTTTCCCGGTAATCCGTATTTGAC (site AGCTTTTCTGT)	0.236
AGCCACCCATGGACCGGTTTTCCCGGTAATCCGTATTTGTT (site AGCCACCCTAA)	0.0153
AGCCACCCATGGACCGGTTTTCCCGGTAATCCGTATTTGTT (site CGCCACCCTAA)	0.026
AGCCACCCATGGACCGGTTTTCCCGGTAATCCGTATTTGTT (site GGCCACCCTAA)	0
AGCCACCCATGGACCGGTTTTCCCGGTAATCCGTATTTGTT (site TGCCACCCTAA)	0
AGCCAGACATGGACCGGTTTTCCCGGTAATCCGTATTTGCA (site AGCCAGACTTG)	2.18
AGCCAGACATGGACCGGTTTTCCCGGTAATCCGTATTTGCA (site AGGAAGACTTG)	0
AGCCCAGCATGGACCGGTTTTCCCGGTAATCCGTATTTGTT (site AGCCAAGCTAA)	0.0134
AGCCCAGCATGGACCGGTTTTCCCGGTAATCCGTATTTGTT (site AGCCCAGCTAA)	0.602
AGCCCAGCATGGACCGGTTTTCCCGGTAATCCGTATTTGTT (site AGCCGAGCTAA)	0.0227
AGCCCAGCATGGACCGGTTTTCCCGGTAATCCGTATTTGTT (site AGCCTAGCTAA)	0.0205
AGCCCCGCATGGACCGGTTTTCCCGGTAATCCGTATTTGTT (site AGCCCCGCTAA)	1.12
AGCCCGCCATGGACCGGTTTTCCCGGTAATCCGTATTTGGG (site AGCCCGCCTCC)	0.00589
AGCCGGCCATGGACCGGTTTTCCCGGTAATCCGTATTTGAT (site AGCCGGCCTAT)	0.00427
AGCCGTACATGGACCGGTTTTCCCGGTAATCCGTATTTGCT (site AGCCGTACTAG)	1.74
